Laboratory results reported in patent US20210127673A1, “HERBICIDES” (SYNGENTA PARTICIPATIONS AG, priority 2016, published 2021).

Experiments:
Format in all cases: in vivo
Conditions in all cases: evaluated after 13 days
[1] = tested on: Echinochloa crus-galli (ECHCG); assay: Pre-emergence herbicidal activity, Echinochloa crus-galli
In short: (§1)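 Visual injury score, 0–5, taken 13 days after a pre-emergence spray applied one day post-sowing; spray vehicle acetone/water (50:50) with 0.5% Tween 20.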

Lolium perenne (LOLPE) [2] = assay: Post-emergence herbicidal activity, Lolium perenne
In short: (§2)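 Pot-grown plants in standard soil were sprayed 8 days after sowing with active ingredient in acetone/water (50:50) containing 0.5% Tween 20. Glasshouse at 24/16 °C day/night, 14 h light, 65% humidity, watered twice daily. Damage scored after 13 days on 0 (none) to 5 (total) scale.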

Setaria faberi (SETFA) [3] = assay: Post-emergence herbicidal activity, Setaria faberi; set-up: key: 5=total damage to plant; 0=no damage to plant
In short: as §2

[4] = tested on: Alopecurus myosuroides (ALOMY); assay: Pre-emergence herbicidal activity, Alopecurus myosuroides; set-up: key: 5=total damage to plant; 0=no damage to plant
In short: as §1

[5] = tested on: Triticum aestivium (TRZAW); assay: Pre-emergence herbicidal activity, Triticum aestivium; set-up: key: 5=total damage to plant; 0=no damage to plant
In short: as §1

[6] = tested on: Echinochloa crus-galli (ECHCG); assay: Post-emergence herbicidal activity, Echinochloa crus-galli; set-up: key: 5=total damage to plant; 0=no damage to plant
In short: as §2

[7] = tested on: Triticum aestivium (TRZAW); assay: Post-emergence herbicidal activity, Triticum aestivium; set-up: key: 5=total damage to plant; 0=no damage to plant
In short: as §2

Lolium perenne (LOLPE) [8] = assay: Pre-emergence herbicidal activity, Lolium perenne; set-up: key: 5=total damage to plant; 0=no damage to plant
In short: as §1

[9] = tested on: Alopecurus myosuroides (ALOMY); assay: Post-emergence herbicidal activity, Alopecurus myosuroides; set-up: key: 5=total damage to plant; 0=no damage to plant
In short: as §2

Avena fatua (AVEFA) [10] = assay: Post-emergence herbicidal activity, Avena fatua; set-up: key: 5=total damage to plant; 0=no damage to plant
In short: as §2

Setaria faberi (SETFA) [11] = assay: Pre-emergence herbicidal activity, Setaria faberi
In short: as §1

Avena fatua (AVEFA) [12] = assay: Pre-emergence herbicidal activity, Avena fatua; set-up: key: 5=total damage to plant; 0=no damage to plant
In short: as §1

| Compound | Control of ECHCG after pre-emergence application (score 0-5) ([1]; 1000 g/ha) | Control of LOLPE after post-emergence application (score 0-5) (Lolium perenne (LOLPE) [2]; 1000 g/ha) | Control of SETFA after post-emergence application (score 0-5) (Setaria faberi (SETFA) [3]; 1000 g/ha) | Control of ALOMY after pre-emergence application (score 0-5) ([4]; 1000 g/ha) | Control of TRAZW after pre-emergence application (score 0-5) ([5]; 1000 g/ha) | Control of ECHCG after post-emergence application (score 0-5) ([6]; 1000 g/ha) | Control of TRAZW after post-emergence application (score 0-5) ([7]; 1000 g/ha) | Control of LOLPE after pre-emergence application (score 0-5) (Lolium perenne (LOLPE) [8]; 1000 g/ha) | Control of ALOMY after post-emergence application (score 0-5) ([9]; 1000 g/ha) | Control of AVEFA after post-emergence application (score 0-5) (Avena fatua (AVEFA) [10]; 1000 g/ha) | Control of SETFA after pre-emergence application (score 0-5) (Setaria faberi (SETFA) [11]; 1000 g/ha) | Control of AVEFA after pre-emergence application (score 0-5) (Avena fatua (AVEFA) [12]; 1000 g/ha) | also measured |
| --- | --- | --- | --- | --- | --- | --- | --- | --- | --- | --- | --- | --- | --- |
| CC(C)(C)NC(=O)Nc1ccc(-c2cncc(F)c2)nc1C(F)(F)F [Compound B65] | 2 | 3 | 4 | 1 | 0 | 5 | 0 | 1 | 1 | 3 | 3 | 2 | – |
| CN(C(=O)N1CCOCC1)c1ccc(-c2cncc(F)c2)nc1C(F)(F)F [Compound B67] | 3 | 1 | 4 | 0 | 0 | 4 | 1 | 1 | 1 | 2 | 4 | 0 | – |
| O=C(Nc1ccc(-c2cncc(F)c2)nc1C(F)(F)F)N1CCSC1 [Compound B68, N-[6-(5-fluoro-3-pyridyl)-2-(trifluoromethyl)-3-pyridyl]thiazolidine-3-carboxamide] | 3 | 2 | 5 | 1 | 0 | 5 | 2 | 1 | 0 | 3 | 4 | 2 | – |
| O=C(Nc1ccc(-c2cncc(F)c2)nc1C(F)(F)F)NN1CCOCC1 [Compound B69] | 2 | 2 | 4 | 0 | 0 | 4 | 1 | 1 | 0 | 3 | 4 | 1 | – |
| O=C(Nc1cncnc1)Nc1ccc(-c2cncc(F)c2)nc1C(F)(F)F [Compound B70] | 1 | 1 | 3 | 0 | 0 | 3 | 1 | 0 | 0 | 1 | 2 | 0 | – |
| O=C(Nc1ccccc1)Nc1ccc(-c2cncc(F)c2)nc1C(F)(F)F [Compound B71] | 1 | 2 | 3 | 0 | 0 | 3 | 1 | 0 | 0 | 2 | 1 | 0 | – |
| CN(C(N)=O)c1ccc(-c2cncc(F)c2)nc1C(F)(F)F [Compound B72] | 2 | 1 | 4 | 0 | 0 | 4 | 1 | 0 | 1 | 1 | 4 | 0 | – |
| CNC(=O)N(C)c1ccc(-c2cncc(F)c2)nc1C(F)(F)F [Compound B73] | 2 | 2 | 4 | 0 | 0 | 4 | 1 | 1 | 1 | 3 | 4 | 0 | – |
| COC(=O)c1nc(-c2cncc(F)c2)ccc1N(C(=O)OC(C)(C)C)C(=O)OC(C)(C)C [Compound B76, methyl 3-[bis(tert-butoxycarbonyl)amino]-6-(5-fluoro-3-pyridyl)pyridine-2-carboxylate] | 1 | 1 | 3 | 0 | 0 | 1 | 0 | 0 | 0 | 0 | 3 | 0 | – |
| COc1nc(-c2cncc(F)c2)ccc1NC(=O)OC(C)(C)C [Compound B78] | 2 | 1 | 5 | 0 | 0 | 2 | 0 | 1 | 0 | 2 | 4 | 0 | – |
| Cc1cc(CNC(=O)Nc2ccc(-c3cncc(F)c3)nc2C(F)(F)F)c(C(F)(F)F)o1 [Compound B79] | 2 | 1 | 2 | 0 | 0 | 1 | 0 | 1 | 0 | 2 | 1 | 0 | – |
| O=C(NCC1CCCCC1)Nc1ccc(-c2cncc(F)c2)nc1C(F)(F)F [Compound B80] | – | – | – | – | – | – | – | – | – | – | – | – | Control of ECHCG after pre-emergence application (score 0-5) ([1]; 250 g/ha): 1; Control of LOLPE after post-emergence application (score 0-5) (Lolium perenne (LOLPE) [2]; 250 g/ha): 1; Control of SETFA after post-emergence application (score 0-5) (Setaria faberi (SETFA) [3]; 250 g/ha): 2; Control of ALOMY after pre-emergence application (score 0-5) ([4]; 250 g/ha): 0; Control of TRAZW after pre-emergence application (score 0-5) ([5]; 250 g/ha): 0; Control of ECHCG after post-emergence application (score 0-5) ([6]; 250 g/ha): 1; Control of TRAZW after post-emergence application (score 0-5) ([7]; 250 g/ha): 0; Control of LOLPE after pre-emergence application (score 0-5) (Lolium perenne (LOLPE) [8]; 250 g/ha): 2; Control of ALOMY after post-emergence application (score 0-5) ([9]; 250 g/ha): 0; Control of AVEFA after post-emergence application (score 0-5) (Avena fatua (AVEFA) [10]; 250 g/ha): 2; Control of SETFA after pre-emergence application (score 0-5) (Setaria faberi (SETFA) [11]; 250 g/ha): 2; Control of AVEFA after pre-emergence application (score 0-5) (Avena fatua (AVEFA) [12]; 250 g/ha): 1 |
